Results: PubChem BioAssay AID624491 (Broad Institute, 2012)

System: D54 ERlucT glycosylation luciferase reporter, luminescence, 24 h
Experiment: blockers of NLG process in reporter cells – D54 ERlucT cells, luminescence, cherry-picks, dose response (AID 624491);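 further: signal gain reflects blocked N-linked glycosylation of a luciferase reporter; actives raise luciferase signal so AC26 marks activators of the reporter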

| SMILES | AC26 |
| --- | --- |
| CC(=O)c1cccc(-c2ccnc3c2CC(C(=O)NCC2CCOCC2)O3)c1 (stereo unspecified) | 2070 nM |
| COc1ccccc1C(=O)Nc1nnc(CCc2ccccc2)s1 | 3720 nM |
| Cc1ccc(S(=O)(=O)C(NC(=O)c2ccccc2)=C(Cl)Cl)cc1 | 4090 nM |
| COc1cc(F)ccc1-c1csc(C(NC(C)=O)c2ccc(F)c(F)c2)n1 (stereo unspecified) | 681 nM |
| CCOC(=O)/C(=C\c1ccccc1)C(=O)c1cc(C(C)=O)c(Nc2ccccc2)s1 | 1150 nM |
| Cc1ccnc(NC(=O)C(Cc2ccccc2)NC(=O)c2ccccc2)c1 (stereo unspecified) | 564 nM |
| Cc1cc(=O)oc2cc(NC(=O)c3cccc(S(C)(=O)=O)c3)ccc12 | 2310 nM |
| c1ccc(CN2CCC(Nc3nc(-c4cccnc4)nc4ccccc34)CC2)cc1 | 6130 nM |
| COc1ccc(Nc2nc(-c3sc(C)nc3C)cs2)c(OC)c1 | 1240 nM |
| COC(=O)c1ccc(S(=O)(=O)N2CCc3ccccc32)cc1 | 10600 nM |
| COc1cccc(NC(=O)CCCOc2cc(=O)n(C)c3ccccc23)c1 | 4130 nM |
| CCc1ccc(CNC(=O)Cc2ccc(NC(=O)C3=C(C)OCCS3)cc2)cc1 | 352 nM |
| CCN(CC)CCCNc1ccc2ncn3c4ccc(O)cc4c(=O)c1c23 | 92.6 nM |
| COc1cc2c(cc1OC)C(c1cccs1)N(C(=O)c1ccncc1)CC2 (stereo unspecified) | 3030 nM |
| CC(=O)Nc1ccc(Nc2ccc3c4c(cc(=O)n3C)-c3ccccc3C(=O)c24)cc1 | 730 nM |
| O=C(/C=C/Sc1ccc(C(F)(F)F)cn1)c1ccccc1 | 3910 nM |
| Cn1c(SCC(=O)Nc2cccc(F)c2)nc2c([nH]c3ccccc32)c1=O | 5420 nM |
| Cc1ccc2nc(-c3ccc(SCC(=O)Nc4nnc(C)s4)nc3)[nH]c2c1 | 4860 nM |
| CCC1=Nc2cc(C(=O)NCCCOC)ccc2Sc2ccccc21 | 422 nM |
| CN(C)CCCNc1c2c(nc3ccccc13)CCC2 | 9560 nM |
| O=C1[C@H]2[C@@H](c3ccc(F)cc3)N3C(=O)N(c4cccc(Br)c4)C(=O)[C@@]3(Cc3ccccc3)[C@H]2C(=O)N1C1CCCCC1 | 114 nM |
| COc1cc(C(=O)NCC(=O)NCCN2C(=O)S/C(=C\c3ccccc3Cl)C2=O)cc(OC)c1OC | 2430 nM |
| Cc1ccc(NC(=O)c2ccc(Cl)cc2[N+](=O)[O-])nc1 | 1080 nM |

| SMILES | AC26 |
| --- | --- |
| CCOc1ccc(NC(=O)c2cc(OC)nc3ccccc23)cc1 | 284 nM |
| C(=C\c1nccc2c1[nH]c1ccccc12)/c1ccccc1 | 4680 nM |
| COc1ccccc1-c1nnc2sc(-c3cc4ccccc4o3)nn12 | 63.7 nM |
| Cc1ccc2c(c1)cc(CN(C(=O)N1CCOCC1)C1CCCC1)c1nnnn12 | 4120 nM |
| Nc1nc(-c2ccccc2)cc(N2CCCCC2)n1 | 4270 nM |
| CC(C)COc1ccc(C(=O)OCC(=O)NCc2cccs2)cc1 | 1750 nM |
| Cn1c(=O)n(C)c2cc(NS(=O)(=O)c3ccccc3)ccc21 | 3430 nM |
| CCn1c(=O)c2cc(C(=O)NCCN(C)C)sc2c2ccccc21 | 5230 nM |
| CCCNc1nc2ccccc2n2c(C)nnc12 | 2980 nM |
| O=C(N/N=C\c1cn(-c2ccccc2)nc1-c1ccccc1)c1ccc(Br)o1 | 9570 nM |
| CC(=O)Nc1ccc(-c2ccnc3c2CC(C(=O)NCc2cccc(Cl)c2)O3)cc1 (stereo unspecified) | 540 nM |
| CCOc1cc(-c2c(C#N)c(N)nc3c2CCc2ccccc2-3)ccc1O | 9010 nM |
| Cc1nc(-c2ccccc2)sc1-c1nc(-c2ccncc2)ncc1S(=O)(=O)c1ccccc1 | 956 nM |
| CCOC(=O)C(C)Oc1cccc2c(=O)n(CC(=O)NCc3ccc(F)cc3)ccc12 (stereo unspecified) | 1720 nM |
| Cc1cc(-n2c(SCC(=O)NCCC3=CCCCC3)nc3n[nH]c(C)c3c2=N)ccc1Cl | 4030 nM |
| COc1cc(CN2CCc3ccccc3C2)ccc1O | 696 nM |
| COc1ccc(Sc2nnc(Cc3ccccc3)c3ccccc23)cc1 | 2880 nM |
| O=C(CNc1cccc2ccccc12)N/N=C/C(Br)=C/c1ccccc1 | 17100 nM |
| O=C(c1[nH]c(C(F)(F)F)nc1-c1ccccc1)N1CCN(c2ccccc2)CC1 | 395 nM |
| CCOC(=O)c1[nH]c(C)c(C(=O)N2CCc3ccccc32)c1C | 133 nM |
| Oc1cc(Nc2ccccc2)cc2cccnc12 | 1030 nM |
| COc1ccc(C(=O)/C=C/c2ccc(N(C)C)cc2)c(OC)c1 | 11700 nM |
| Cc1ccc(N2CC(C(=O)Nc3ccc(S(=O)(=O)N4CCOCC4)cc3)CC2=O)cc1Cl (stereo unspecified) | 3860 nM |

| SMILES | AC26 |
| --- | --- |
| c1ccc(-c2nc(-n3ccnc3)nc(-n3ccnc3)n2)cc1 | 2780 nM |
| COc1ccc(-c2cnc3c(NC=O)cc(-c4ccccc4)cn23)cc1OC | 97.1 nM |
| Cc1nc2ccccc2c2oc(C(=O)NCCCN3CC(C)CC(C)C3)cc12 (stereo unspecified) | 5380 nM |
| COCCOC(=O)c1[nH]c2c(c1C)C(=O)CC(c1cccs1)C2 (stereo unspecified) | 1380 nM |
| N#Cc1ccc(-c2cccs2)nc1SCc1cccnc1 | 242 nM |
| CCCNC(=O)c1cc(-c2ccco2)on1 | 3780 nM |
| Cc1ccc(C(=O)Nc2ccccc2C(=O)N2CC(C)OC(C)C2)cc1 (stereo unspecified) | 1330 nM |
| CCN1CCN(c2ccc([N+](=O)[O-])cc2C(=O)c2ccc(Cl)cc2)CC1 | 11200 nM |
| Cc1cc(NCCN2CCOCC2)c2ccc3ccccc3c2n1 | 3590 nM |
| COc1cc(C(=O)Nc2ccc3c(c2)nc(C)n3C)cc(OC)c1OC | 2690 nM |
| O=C(Nc1cccc(-c2cn3ccccc3n2)c1)c1cccc(Cl)c1 | 1750 nM |
| CCn1c2ccccc2c2cc(NC(=O)COC(=O)c3ccccc3F)ccc21 | 4200 nM |
| Cc1cc(C)c2nc3nc(C)cc(C)c3c(N)c2c1 | 145 nM |
| COc1cc(-c2noc(C)c2/C=C/c2ccc(OC(C)=O)cc2)cc(OC)c1OC | 494 nM |
| COc1ccc(Nc2nc(N3CCCC3)nc3ccccc23)c(OC)c1 | 1950 nM |
| CCOc1cc(N2CCOCC2)c(OCC)cc1NC(=O)c1[nH]c(C)c(C(C)=O)c1C | 1620 nM |
| O=C(Cc1ccc(-c2ccccc2)cc1)NCc1cccnc1 | 12400 nM |
| Cc1ccc2[nH]c(=O)c3cc(C(=O)NC(C)C)sc3c2c1 | 3990 nM |
| CCOC(=O)c1cc2sccc2n1CC(=O)N1CCc2ccccc21 | 7500 nM |
| COc1cc(N)ccc1Nc1c2ccccc2nc2ccccc12 | 70 nM |
| COC(=O)Nc1nc(-c2ccccc2)c(C(=O)c2ccc(Cl)cc2)s1 | 3.16 nM |
| Cc1ccc(C(=O)Nc2cc(S(=O)(=O)N3CCOCC3)ccc2N2CCCC2)cc1 | 1310 nM |
| COC(=O)Nc1nc(C)c(C(=O)c2ccccc2)s1 | 7950 nM |

| SMILES | AC26 |
| --- | --- |
| COc1ccccc1NC(=O)/C=C/c1ccc2c(c1)OCO2 | 3780 nM |
| COc1ccc([C@H]2CC(=O)C=C(c3c(OC)cccc3OC)C2)cc1 | 3260 nM |
| O=C(C[C@H]1C/C=C\C[C@H](Cc2ccc(F)cc2)C(=O)O[C@@H](c2ccccc2)CNC1=O)N[C@@H](CO)Cc1ccccc1 | 892 nM |
| Clc1ccc(C2=Nn3c(nnc3-c3cc(-c4ccccc4)n[nH]3)SC2)cc1 | 5130 nM |
| N#Cc1cc2[nH]c3ccccc3c2[n+](-c2ccc([N+](=O)[O-])cc2)c1N | 4410 nM |
| O=C(/C(=C\c1ccccc1)c1nc2ccccc2[nH]1)c1ccc(Cl)cc1 | 1000 nM |
| Cn1cnc([N+](=O)[O-])c1S(=O)(=O)Oc1ccccc1 | 1420 nM |
| COc1ccc(C=CC(=O)c2ccc(OC)c(OC)c2O)cc1OC | 4390 nM |
| C=CCn1c(SCc2c(C)noc2C)nc2sc(C)c(C)c2c1=O | 891 nM |
| COc1ccc(C(=O)NC(=C(Cl)Cl)S(=O)(=O)c2ccc(C)cc2)cc1 | 10200 nM |
| Cc1ccc(Sc2c(CO)c(-c3ccccc3)nn2C)cc1 | 341 nM |
| Oc1ccc(Nc2nc(NCC3CCCO3)c3ccccc3n2)cc1 (stereo unspecified) | 1110 nM |
| NC(=O)N=Nc1c2[nH]c3ccccc3nc-2c2ccccc12 | 1130 nM |
| CN(Cc1ccccc1)c1nc2c(c(=O)n(C)c(=O)n2C)n1CCCc1ccccc1 | 981 nM |
| CCCCCC(O)C=CC1C(O)CC(O)C1CC=CCCCC(=O)O (stereo unspecified) | 7.83 nM |
| Cc1cc(C)cc(N2C(=O)NC(=O)/C(=C\C=C\c3ccco3)C2=O)c1 | 1130 nM |
| CCCn1nc(C(=O)N2CC(=O)Nc3ccccc32)c2ccccc2c1=O | 4890 nM |
| COc1cc(OC)cc(C(=O)NCC(=O)Nc2ccc(-c3ccccc3)cc2)c1 | 8830 nM |
| CCN1Cc2c(/C=C/c3ccccc3)nc3ccc(OC)cc3c2N(c2cccc(Cl)c2)C1 | 14300 nM |
| CCn1c(=O)cc(SCC(=O)NCCCN2CCN(c3ccc(F)cc3)CC2)c2ccccc21 | 9830 nM |
| O=C(c1ncn(Cc2ccccc2)c1C(=O)N1CCN(c2ccccc2)CC1)N1CCN(c2ccccc2)CC1 | 513 nM |
| CCOC(=O)c1sc(Nc2nc(C)cc(C)n2)nc1C | 949 nM |
| Cc1cc(Cl)ccc1OCCCC(=O)NO | 2730 nM |

| SMILES | AC26 |
| --- | --- |
| Cc1cccc(NC(=O)Nc2cccc(C#N)c2)n1 | 4060 nM |
| COc1cccc(-c2nn(C)c3sc(C(=O)NCc4ccco4)cc23)c1 | 3620 nM |
| COc1ccc2nc3c(cc2c1)c(NC(=O)CC(C)C)nn3CC(C)C | 8100 nM |
| COC(=O)[C@@H]1C[C@H]1[C@@H](NP(=O)(c1ccccc1)c1ccccc1)c1ccccc1 | 3650 nM |
| CNC(=O)c1cccc(NC(=O)c2ccccc2OCc2ccccc2)c1 | 355 nM |
| O=C(C[C@@H]1C[C@H]2c3cc(NC(=O)c4cccnc4)ccc3O[C@H]2[C@H](CO)O1)NCc1ccc(Oc2ccccc2)cc1 | 8780 nM |
| CCCCCCC(=O)N(O)C1CC(=O)N(c2ccc(Br)cc2)C1=O (stereo unspecified) | 689 nM |
| CCOc1ccc2[nH]c3c(N4CCc5ccccc5C4)ncnc3c2c1 | 3460 nM |
| Cc1ccc(-n2nc(C)c(/C=N/NC(=O)c3cccs3)c2Cl)cc1 | 4230 nM |
| CCCCc1ccc(N/C(N)=N/c2nc(C)cc(C)n2)cc1 | 4690 nM |
| COc1cc(C2C(C#N)=C(N)Oc3cc(O)ccc32)cc(OC)c1OC (stereo unspecified) | 1020 nM |
| Cc1ccc(N2CCN(C3=NC(=O)/C(=C\c4cn[nH]c4-c4ccccc4)S3)CC2)cc1 | 1350 nM |
| CCOC(=O)c1c(CN(C)C)n(C)c2c(O)c(N=NC(N)=O)c3ccc(Br)cc3c12 | 242 nM |
| CCc1ccc(Oc2coc3cc(OCC(=O)Nc4cc(C)ccc4C)ccc3c2=O)cc1 | 4860 nM |
| COc1ccc2c(c1)OC[C@H]1[C@H]2N2C(=O)c3ccc(C)cc3NC(=O)[C@@]2(C)[C@H]1c1ccccc1 | 926 nM |
| C[C@@]12C(=O)Nc3cc(F)c(F)cc3C(=O)N1[C@H]1c3ccccc3OC[C@@H]1[C@@H]2c1ccccc1 | 784 nM |
| Cc1ccc(Nc2nnc(SCC(=O)Nc3ncc(S(=O)(=O)c4ccc([N+](=O)[O-])cc4)s3)s2)cc1 | 9030 nM |
| O=C(COC(=O)Cn1cnc2ccccc21)Nc1cccc2c1C(=O)c1ccccc1C2=O | 2840 nM |
| COc1ccc(CCCNC(=O)C2Cc3c(-c4cccc(C(C)=O)c4)ccnc3O2)cc1 (stereo unspecified) | 12600 nM |
